A word on the IC50: it is the concentration that inhibits the measured activity by half. Usually AUC(0-t) stands for exposure summed from dosing to a finite time, without extrapolation to infinity. The low end stands for less exposure, the high end for more exposure. By Cmax is commonly meant the peak of the concentration-time curve. Broadly, the half-life is the time needed for the level to fall by half in the phase considered. High values mean slow decline, low ones rapid decline.

Values joined by “and” are separate entries in the source; they are usually repeats but may differ in a detail not shown here. Identical values can stand only once. Like-named read-outs stand apart in the source and are kept apart here.

For series [1], the system named is BRCA wild-type DLD-1 cells. In words: Anti-proliferative activity assay of cell (CCK8), DLD-1. Particulars: Homo sapiens; BRCA wild-type DLD-1 cells, 72 h + 96 h, CCK8; read-out: DLD-1 IC50. Format: cell-based.
The nature of series [2]: Pharmacokinetic evaluation of compound in Balb/c mice. Format: in vivo. Conditions: 1 mg/kg, PO; for AUC(0-t) / Cmax / half-life: male, mouse, plasma. The method, then:
Sample preparation: About 0.2 mg of the compound was dissolved in 10 µL DMSO, then a sodium chloride injection was added to make a 0.1 mg·mL^-1 solution of the compound for administration.
Three mice were administered the compound intravenously (IV) at a dose of 1 mg·kg^-1, and the other three were administered the compound orally (PO) at the same dose. […] The plasma concentration of the drug was quantitatively analyzed with the LC-MS/MS method, and pharmacokinetic parameters were calculated, including the […] (Cmax), area under the concentration-time curve (AUC(0-t)), half-life (T1/2), clearance (CL), volume of distribution at steady state (Vdss), and bioavailability (F).

In series [3] the target is T1, PARP2 (Homo sapiens, UniProt Q9UGN5).
T1 construct: purchased BPS 80502
The series is described as follows: Determination of PARP2 enzyme (histone-coated plate, Biotin-NAD+). Format: biochemical. Particulars: read-out: PARP-2 IC50. The protocol:
• 1.2.1 Preparation of buffer solution: PBST: 1x PBS, 0.05% Tween-20; blocking solution: 1x PBS, 0.05% Tween-20, 5% BSA; reaction buffer solution: 50 mM HEPES (pH 7.5), 0.002% Tween-20, 0.1% BSA, 100 mM NaCl, 2mM DTT. • 1.2.2 Coating: A 100 ng/mL Histone coating solution was prepared by using 1x PBS, 25 uL of the coating solution was transferred to a 384-well reaction plate, and the reaction plate was coated overnight at 4°C. • 1.2.3 Washing: After the coating was completed, the coating solution was discarded, and the reaction plate was washed with the PBST solution by means of transferring 50uL of the PBST solution to the 384-well reaction plate, letting it stand for 5 min, discarding the washing solution, refilling the reaction plate, and repeating the washing process 3 times. Finally, the reaction plate was tapped dry and the next step of blocking was proceeded with. • 1.2.4 Blocking: 50 uL of the blocking solution was transferred to the 384-well reaction plate and set for 1 h. • 1.2.5 Washing: After the blocking was completed, the blocking solution was discarded, the reaction plate was washed 3 times with the PBST solution according to the method in Step 2, and the reaction plate was tapped dry. • 1.2.6 A 25/10× PARP2 solution was prepared, then 10 µL of the PARP2 solution was transferred to the 384-well reaction plate.

Series [4] concerns the target T2, PARP5A (Homo sapiens, UniProt O95271).
T2 construct: purchased BPS 80504
The series is described as follows: Determination of PARP5A enzyme (histone-coated plate, Biotin-NAD+). It is filed as biochemical. The method, then: • 1.3.1 Preparation of buffer solution solution: PBST: 1x PBS, 0.05% Tween-20; blocking solution: 1x PBS, 0.05% Tween-20, 5% BSA; reaction buffer solution: 50 mM HEPES (pH 7.5), 0.002% Tween-20, 0.1% BSA, 100 mM NaCl, 2mM DTT. • 1.3.2 Coating: A 100 ng/mL Histone coating solution was prepared by using 1x PBS, 25 uL of the coating solution was transferred to a 384-well reaction plate, and the reaction plate was coated overnight at 4°C. • 1.3.3 Washing: After the coating was completed, the coating solution was discarded, and the reaction plate was washed with the PBST solution by means of transferring 50uL of the PBST solution to the 384-well reaction plate, letting it stand for 5 min, discarding the washing solution, refilling the reaction plate with the PBST solution, and repeating the washing process 3 times. Finally, the reaction plate was tapped dry and the next step of blocking was proceeded with. • 1.3.4 Blocking: 50 uL of the blocking solution was transferred to the 384-well reaction plate and set for 1 h. • 1.3.5 Washing: After the blocking was completed, the blocking solution was discarded, the reaction plate was washed 3 times with the PBST solution according to the method in Step 2, and the reaction plate was tapped dry. • 1.3.6 A 25/10× PARP5A solution was prepared, then 10 µL of the PARP5A solution was transferred to the 384-well reaction plate. For negative control wells, 10 µL of the reaction buffer solution instead was transferred, resulting in the final concentration of PARP5A of 10 nM. • 1.3.7 A 2,000x compound was prepared, 50 nL of the compound was transferred to with echo, 19.95 uL of the reaction buffer solution was added into the compound, mix well, and 5 uL of the mixed compound was transferred to the 384-well reaction plate. • 1.3.8 A 25/10x Biotin-NAD+ solution was prepared, 10uL of the Biotin-NAD+ solution was transferred to the 384-well reaction plate, resulting in a final Biotin-NAD+ concentration of 2uM, and incubated at room temperature for 60 min. • 1.3.9 Washing: After the reaction was completed, the reaction liquid was discarded. The reaction plate was washed 3 times with the PBST solution according to the method in Step 2, and the reaction plate was tapped dry. • 1.3.10 A Stre-HRP solution was prepared by means of diluting it with the blocking solution, 25uL of the Stre-HRP solution was transferred to the reaction plate, and incubated at room temperature for 1 h, resulting the final concentration of Stre-HRP of 0.1 µg/mL. • 1.3.11 Washing: The Stre-HRP solution was discarded, the reaction plate was washed 3 times with the PBST solution according to the method in Step 2, and the reaction plate was tapped dry. • 1.3.12 Color developing: Femto-ECL Substrate A, Femto-ECL Substrate B, and QuantaRed ADHP were mixed in a 50:50:1 ratio.

Series [5] has as its target PARP1 (Homo sapiens, UniProt P09874). In words: Determination of PARP1 enzyme (histone-coated plate, chemiluminescence). Format: biochemical.
For series [6], the system named is breast cancer MDA-MB-436. In words: In-vivo pharmacodynamic study on subcutaneous xenograft tumor model of breast cancer MDA-MB-436. Particulars: 100 mg/kg orally once daily. Further details: species or system NOD/SCID mice. The protocol: Strain: NOD/SCID; Grade: SPF; Source: Beijing Vitron River Bio-technology Co., Ltd.
The cells were washed 3 times with pre-cooled PBS, centrifuged at 300 g for 10 min, collected, re-suspended in PBS, and counted with a blood cell counting chamber, and the cell concentration was adjusted. After cell collection, the cell suspension was pre-cooled on ice. 100 µL of the cell suspension was administered via subcutaneous injection into the dorsal flank of the mice, and the grouped treatment was started when the tumor volume reached 200-300 mm^3.
General observation: Observation of animals: all live experimental animals to be observed; Observation time: twice a day; Observation items: including but not limited to general performance, behavioral status, eyes, mouth, nose and mouth, ears, hair, stool, urine, genitalia and other toxic symptoms; If abnormalities are observed, provide a detailed description.
Animal assay: all viable experimental animals scheduled for assay; Assay time: All animals were weighed before the modeling for test grouping. After modeling, the mice were weighed once every 2 days, and the weight change of the mice was recorded in real time. Effective criteria: tumor volume (TV), relative tumor volume (RTV) and relative tumor growth rate of subcutaneously implanted tumor model. […] The calculation formula of tumor volume (TV) was: TV (mm^3) = a×b2×0.5, where a and b were the long diameter and short diameter, respectively.
The evaluation index for anti-tumor activity was the relative tumor growth rate T/C (%), and the calculation formula was as follows: T/C(%) = TRTV/CRTV × 100%; [formula]
Where, TRTV is relative tumor volume of the treatment group; CRTV is relative tumor volume of the negative control group. Therapeutic evaluation criteria: T/C (%)> 60 is considered ineffective; T/C (%) ≤ 60, and P < 0.05 (through statistical analysis) is considered effective. Measurement of tumor weight and tumor inhibition rate (%): At the end of the treatment period, the animals were euthanize, tumor masses dissected and isolated, tumors weighed, and photographs took. The tumor inhibition rate (%) was calculated by the formula below: [formula]
All raw data within the facility were collected manually according to the experimental scheme and the relevant guidelines of the research institution, or gathered by using a data acquisition system. Manually collected data can be transcribed into software such as Excel for analysis and reporting. The data from each group were quantitative, and the experimental data for each group of animals in the tables were expressed as mean ± standard deviation (Mean ± SD). In the figures, the experimental data ware described as mean ± standard error of the mean (Mean ± SEM). Statistical analysis, including t-tests and survival analysis, was performed by using the software such as EXCEL and GraphPad Prism.
After 24 days of administration, the tumor-bearing mice were anesthetized and euthanized. The tumor tissues were dissected, weighed, and photographed, and the tumor inhibition rate was calculated.

T1 sequence (Q9UGN5 whole entry): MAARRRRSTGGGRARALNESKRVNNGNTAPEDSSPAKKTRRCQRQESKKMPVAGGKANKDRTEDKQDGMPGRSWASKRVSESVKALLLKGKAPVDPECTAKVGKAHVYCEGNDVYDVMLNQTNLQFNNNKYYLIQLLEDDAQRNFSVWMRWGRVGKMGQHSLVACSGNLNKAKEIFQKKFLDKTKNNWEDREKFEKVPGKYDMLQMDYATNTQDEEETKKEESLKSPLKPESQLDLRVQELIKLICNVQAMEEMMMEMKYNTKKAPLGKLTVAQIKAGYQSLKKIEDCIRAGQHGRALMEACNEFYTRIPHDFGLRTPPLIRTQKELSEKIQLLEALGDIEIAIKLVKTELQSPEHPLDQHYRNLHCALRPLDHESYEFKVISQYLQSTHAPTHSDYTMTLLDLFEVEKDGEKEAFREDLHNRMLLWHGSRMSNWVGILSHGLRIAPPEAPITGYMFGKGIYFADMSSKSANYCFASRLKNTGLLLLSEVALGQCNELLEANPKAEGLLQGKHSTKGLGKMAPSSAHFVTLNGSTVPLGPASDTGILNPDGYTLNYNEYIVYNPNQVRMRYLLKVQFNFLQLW
Sequence of PARP1 (P09874 whole entry): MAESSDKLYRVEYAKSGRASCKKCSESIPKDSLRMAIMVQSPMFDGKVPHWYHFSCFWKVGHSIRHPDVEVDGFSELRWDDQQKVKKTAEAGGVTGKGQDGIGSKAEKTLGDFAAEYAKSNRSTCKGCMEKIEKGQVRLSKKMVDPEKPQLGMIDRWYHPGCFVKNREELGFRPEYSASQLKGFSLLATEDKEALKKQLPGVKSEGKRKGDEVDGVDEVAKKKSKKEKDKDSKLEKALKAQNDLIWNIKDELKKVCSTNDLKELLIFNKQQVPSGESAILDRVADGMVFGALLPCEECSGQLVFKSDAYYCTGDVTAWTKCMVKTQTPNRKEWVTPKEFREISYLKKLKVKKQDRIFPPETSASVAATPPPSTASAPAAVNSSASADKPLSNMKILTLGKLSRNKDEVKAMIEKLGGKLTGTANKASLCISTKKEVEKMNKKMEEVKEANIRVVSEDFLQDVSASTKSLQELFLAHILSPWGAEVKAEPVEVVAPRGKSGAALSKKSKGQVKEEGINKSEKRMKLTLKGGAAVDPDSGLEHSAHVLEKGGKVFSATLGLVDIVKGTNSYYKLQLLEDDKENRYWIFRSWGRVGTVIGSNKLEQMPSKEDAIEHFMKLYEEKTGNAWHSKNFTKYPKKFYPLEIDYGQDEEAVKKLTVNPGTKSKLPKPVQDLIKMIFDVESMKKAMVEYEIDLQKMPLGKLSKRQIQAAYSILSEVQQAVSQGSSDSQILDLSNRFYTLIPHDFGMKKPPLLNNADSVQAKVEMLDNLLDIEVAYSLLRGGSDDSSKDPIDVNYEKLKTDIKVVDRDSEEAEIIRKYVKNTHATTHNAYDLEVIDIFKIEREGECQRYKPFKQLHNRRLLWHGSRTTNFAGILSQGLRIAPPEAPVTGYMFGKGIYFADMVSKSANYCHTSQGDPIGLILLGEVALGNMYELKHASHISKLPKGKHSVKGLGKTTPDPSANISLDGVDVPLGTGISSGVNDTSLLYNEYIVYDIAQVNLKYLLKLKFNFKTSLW
T2 sequence (O95271 1001-1327): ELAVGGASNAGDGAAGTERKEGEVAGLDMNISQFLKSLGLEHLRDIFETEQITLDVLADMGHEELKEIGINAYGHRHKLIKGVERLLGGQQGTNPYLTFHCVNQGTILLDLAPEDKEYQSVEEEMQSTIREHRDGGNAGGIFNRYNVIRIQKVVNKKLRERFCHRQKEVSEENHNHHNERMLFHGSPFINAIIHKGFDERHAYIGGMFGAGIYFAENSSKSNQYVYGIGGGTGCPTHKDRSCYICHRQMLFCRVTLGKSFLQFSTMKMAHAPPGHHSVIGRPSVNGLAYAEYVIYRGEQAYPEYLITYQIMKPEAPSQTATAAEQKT

Consider `[2H]C([2H])([2H])NC(=O)c1ccc(C2=CCN(Cc3ccc4nc(CC)c(=O)[nH]c4c3F)CC2)cn1` [Compound 4, 1'-((2-Ethyl-5-fluoro-3-oxo-3,4-dihydroquinoxalin-6-yl)methyl)-N-(methyl-d3)-1',2',3',6'-tetra hydro-[3,4'-bipyridine]-6-carboxamide], for which, in series [1], the half-maximal inhibitory concentration (IC50) was more than 10000 nM. In series [2], this compound came in with a CL of 0.17 mL/min/kg, a Vdss of 0.14 L/kg, an AUC(0-t) of 122000 ng·h/mL and a Cmax of 7370 ng/mL. Also, the half-life in series [2] is 11.5 h.
In the case of `[2H]C([2H])([2H])NC(=O)c1ccc(C2=CCN(Cc3cnc4cc(CC)c(=O)[nH]c4c3)CC2)c(C)n1` [Compound 8, 1'-((7-ethyl-6-oxo-5,6-dihydro-1,5-naphthyridin-3-yl)methyl)-2-methyl-N-(methyl-d3)-1',2',3', 6'-tetrahydro-[3,4'-bipyridine]-6-carboxamide], in series [2], the Vdss stood at 0.14 L/kg, the AUC(0-t) was 42300 ng·h/mL, the concentration peaked (Cmax) at 5010 ng/mL and the half-life is 4.1 h.
On to `[2H]C([2H])([2H])NC(=O)c1ccc(C2=CCN(Cc3cnc4cc(CC)c(=O)[nH]c4c3)CC2)c(F)n1` [Compound 10, 1'-((7-ethyl-6-oxo-5,6-dihydro-1,5-naphthyridin-3-yl)methyl)-2-fluoro-N-(methyl-d3)-1',2',3', 6'-tetrahydro-[3,4'-bipyridine]-6-carboxamide], for which, in series [1], the half-maximal inhibitory concentration (IC50) is more than 10000 nM. In series [2], the Vdss is on record as 0.15 L/kg, the area under the curve AUC(0-t) was 44600 ng·h/mL, the peak concentration (Cmax) is 3840 ng/mL and the half-life was 4.64 h.
For `[2H]C([2H])([2H])NC(=O)c1ccc(C2=CCN(Cc3cnc4cc(C([2H])([2H])C([2H])([2H])[2H])c(=O)[nH]c4c3)CC2)cn1` [Compound 11, 1'-((7-(ethyl-d5)-6-oxo-5,6-dihydro-1,5-naphthyridin-3-yl)methyl)-N (methyl-d3)-1',2',3',6'-tet rahydro-[3,4'-bipyridine]-6-carboxamide], the IC50 in series [3] and in series [4] (read-out: PARP-5a IC50) was more than 1000 nM throughout.
Turning to `[2H]C([2H])([2H])C([2H])([2H])c1nc2ccc(CN3CC=C(c4ccc(C(=O)NC)nc4)CC3)c(F)c2[nH]c1=O` [Compound 13, 1'-((2-(ethyl-d5)-5-fluoro-3-oxo-3,4-dihydroquinoxalin-6-yl)methyl)-N-methyl-1',2',3',6'-tetra hydro-[3,4'-bipyridine]-6-carboxamide], the PARP-1 inhibition ratio in series [5] is 96.1% and 98.5%. Also, the results for the IC50 in series [3], in series [4] and in series [1] were more than 1000 nM, more than 1000 nM and more than 10000 nM, respectively.
Consider `[2H]C([2H])([2H])C([2H])([2H])c1nc2ccc(CN3CC=C(c4ccc(C(=O)NC)nc4F)CC3)c(F)c2[nH]c1=O` [Compound 14, 1'-((2-(ethyl-d5)-5-fluoro-3-oxo-3,4-dihydroquinoxalin-6-yl)methyl)-2-fluoro-N-methyl-1',2',3 '6'-tetrahydro-[3,4'-bipyridine]-6-carboxamide], for which the PARP-1 inhibition ratio in series [5] (10 nM) amounted to 98.9%; in series [5] (100 nM), 99.1%. Moreover, the IC50 in series [3] is more than 1000 nM; in series [4] (read-out: PARP-5a IC50), more than 1000 nM; in series [1] it was more than 10000 nM.
As to `[2H]C([2H])([2H])Cc1cc2ncc(CN3CC=C(c4ccc(C(=O)NC)nc4)CC3)cc2[nH]c1=O` [Compound 16, 1'-((7-(ethyl-2,2,2-d3)-6-oxo-5,6-dihydro-1,5-naphthyridin-3-yl)methyl)-N-methyl-1',2',3',6'-t etrahydro-[3,4'-bipyridine]-6-carboxamide], the IC50 in series [3] and in series [4] (read-out: PARP-5a IC50) was more than 1000 nM in each case.
As to `O=C(c1cc(Cc2n[nH]c(=O)c3ccccc23)ccc1F)N1CCN(C(=O)C2CC2)CC1` [Olaparib, reference compound], in series [6] (24 days), the RTV is on record as 2.2, the “Tumor inhibition rate (%)” value amounted to 62.19%, the “Tumor volume T/C%” value came out at 33.4% and the “Tumor weight (g) X±SD” value came out at 0.82 ± 0.39 g. Moreover, in series [6] (End, 24 days), the “Body weight (g) X±SD End” value turned out to be 21.7 ± 1.4 g and the “Tumor volume (mm^3) X±SD End” value worked out at 551.5±343.1 mm^3. In series [6] (Start), the “Body weight (g) X±SD Start” value came to 21.9 ± 1.1 g and the “Tumor volume (mm^3) X±SD Start” value stood at 250.7±70.0 mm^3.

These data come from EP4606801A1, “FUSED HETEROCYCLIC COMPOUND AND USE THEREOF” (Chengdu Zenitar Biomedical Technology Co., Ltd., priority 2022, dated 2024).
